Converted amounts (≈) assume the structure as drawn. “And” between values parts separate entries of the source, which are not always exact repeats. Identical values can stand only once. Like-named read-outs stand apart in the source and are kept apart here.
Assays:
[1] = format: in vitro ADME, Rat; settings: clearance in hepatocytes
[2] = tested on: Mtb (katG del) ATCC 35822; test: microbe, parasite or virus in culture; format: cell-based; settings: Mycobacterium tuberculosis
Mtb # 11291 = test: microbe, parasite or virus in culture; format: cell-based
Staphylococcus aureus = test: MIC ESKAPES panel, Staphylococcus aureus; format: cell-based
How it was run: (§1)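 CLSI broth microdilution was run in Mueller Hinton broth with an inoculum of 3–7 × 10^5 cfu/ml at 37 °C. Turbidity was read on day 2; clear wells indicated growth inhibition.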

Enterobacter cloacae = test: MIC ESKAPES panel, Enterobacter cloacae; format: cell-based
How it was run: as §1

in vivo = format: in vivo, BALB/cAnNCrl mice; settings: for Plasma concentration 6 h / Plasma concentration 24 h / AUC0-inf/Dose / AUC0-t/Dose / CL / CL PL QH / Cmax/Dose / MRT / Plasma concentration 0.1 h / Plasma concentration 0.5 h / Plasma concentration 1 h / Plasma concentration 2 h / Plasma concentration 4 h / Vss / t1/2: iv bolus; for Plasma concentration 6 h / Plasma concentration 24 h: BLOQ <1.00 nmol/l
Description: The in-life experimental procedures were conducted in strict compliance with German and European animal welfare legislation in an AAALAC-accredited facility. Male BALB/cAnNCrl mice (Charles River Laboratories Research Models and Services, 97633 Sulzfeld, Germany) were used. Animals were 9 weeks old at dosing with a body weight of 21.6–24.3 g. Animals were delivered free of pathogens according to FELASA recommendations with a health certificate provided by the breeder. Upon receipt, the state of health and sex was checked. Animals acclimatized for at least 5 days before the commencement of the in-life phase. During acclimation, animals were group-housed in individually ventilated cages, on birch wood granulate bedding with species-specific enrichment (nesting material, mouse igloo, gnawing wood). During experimental conduct, animals were housed in conventional cages with elevated grid floors. Grid floor was used to avoid contamination with test item material excreted via urine and feces and subsequent reuptake during fur grooming. No bedding and enrichment were provided except a cage divider, which can be used as a shelter. Animals always had unlimited access to food and water and received a pelleted, total pathogen-free maintenance diet and tap drinking water, sterilized by filter.
In case of incomplete dissolution, the formulation was filtered at 40 °C (non-pyrogenic sterile-R filter, 0.2 µm). All formulations were stirred warm until administration. Actual test item content was determined bioanalytically.
Male BALB/cAnNCrl mice (n = 3 per test item and administration route) received a bolus dose of the formulated test item(s) (1 mg/kg iv, 30 mg/kg po) at t = 0 h, and whole blood samples were collected subsequently (35 µl at 0.1 (iv) / 0.25 (po), 0.5, 1, 2, 4, 6 h; 600 µl at sacrifice after 24 h). Animals were euthanized by exsanguination in deep isoflurane anesthesia. Whole blood samples were immediately stored on ice at about 4 °C. Plasma was separated by centrifugation at approximately 10,000 × g for 5 m at +4 °C. Centrifugation of each blood sample was started within 10 m after collection. A single aliquot of at least 15 µL of plasma was prepared and immediately stored at −20 ± 5 °C.
Sample proteins were precipitated with ACN (1 + 12, v/v) containing internal standard, and supernatants analyzed by quantitative UPLC-MS/MS: Phenomenex Luna Omega C18, 2.1 × 50 mm, 1.6 µm, 40 °C, gradient between 10% - 90% ACN with 0.1% formic acid. LogD determination: Lipophilicity of the test items, expressed as chromLogD7.5, was assessed by measuring their chromatographic retention times on C18-material. The chromatographic retention versus logD7.5 values of a series of thirteen n-alkan-2-ones (2-butanone – 2-hexadecanone) served as lipophilicity calibration.

[3] = tested on: replicating Mtb H37Rv cells; test: Resazurin growth assay, replicating Mtb H37Rv (Supplementary Fig. 2); format: cell-based, Mycobacterium tuberculosis; settings: three replicate columns
[4] = dose-normalized, mice, 1 mg kg-1 iv bolus
[5] = individual animals 1-3, listed as 8 (UdSBI-0545)

COC(c1ccccc1)C1NC(=O)C(C)NC(=O)C(CC(C)CO)N(C)C(=O)C(Cc2cn(Cc3cn(CCOCCOCCOCCOCCn4cc(Cn5cc(CC6NC(=O)C(C(C)C)NC(=O)C(CC(C)C)N(C)C(=O)C(C(C)C)NC(=O)C(C(OC)c7ccccc7)NC(=O)C(C)NC(=O)C(CC(C)CO)N(C)C6=O)c6ccccc65)nn4)nn3)c3ccccc23)NC(=O)C(C(C)C)NC(=O)C(CC(C)C)N(C)C(=O)C(C(C)C)NC1=O (centres unmarked) [Compound 8]
Hepatocyte Rat [1]: 6 %Qh
MIC ([2]; ATCC35822, M. tuberculosis ATCC 35822, single well replicates): 0.195 µM (≈ 0.423 µg/mL)
MIC ([2]; ATCC35822, Mtb (katG del) ATCC 35822, mean ± SD, n = 3 well replicates): 0.2 µM (≈ 0.434 µg/mL)
MIC (Mtb # 11291; Mycobacterium tuberculosis, mean, n = 2 well replicates, read-out: MIC Mtb # 11291): < 0.1 µM and < 0.2 µg/mL
MIC (Mtb # 11291; Mycobacterium tuberculosis, read-out: MIC Mtb # 11291, single well replicates): < 0.1 µM and < 0.21 µg/mL
MIC Mtb # 11291 (Mtb # 11291; single well replicates, listed as 8 (UdSBAI-0545)): <0.21 µg/mL
MIC (Mtb # 11291; single well replicates, listed as 8 (UdSBAI-0545), read-out: MIC Mtb # 11291): <0.1 µM
MIC (Staphylococcus aureus; Gram-Positive Bacteria, replicates 1-3, listed as 8 (UdSBI-0545)): >50 µM
MIC (Staphylococcus aureus; Staphylococcus aureus, Gram positive, n = 3 well replicates): > 50 µM
MIC (Staphylococcus aureus; Staphylococcus aureus, Gram-Positive Bacteria, replicates 1-3): > 109 µg/mL
MIC (Enterobacter cloacae; Enterobacter cloacae, Gram negative, n = 3 well replicates): > 50 µM
MIC (Enterobacter cloacae; Enterobacter cloacae, Gram-Negative Bacteria, replicates 1-3): > 109 µg/mL
MIC (Enterobacter cloacae; Gram-Negative Bacteria, replicates 1-3, listed as 8 (UdSBI-0545)): >50 µM
AUC (in vivo; [4]): 8580 h nM/(nmol kg-1)
Cmax (in vivo; [4]): 6710 nM/(nmol kg-1)
Plasma concentration 6 h (in vivo; [5]): 90.8 nM and 118 nM and 77.8 nM
Plasma concentration 24 h (in vivo; [5]): 14.8 nM and 18.2 nM and 13.3 nM
AUC0-inf/Dose (in vivo; [5]): 7860 h nM/(nmol kg-1) and 10400 h nM/(nmol kg-1) and 8420 h nM/(nmol kg-1)
AUC0-t/Dose (in vivo; [5]): 7540 h nM/(nmol kg-1) and 10000 h nM/(nmol kg-1) and 8140 h nM/(nmol kg-1)
CL (in vivo; [5]): 2.1 mL/min/kg and 1.6 mL/min/kg and 2.0 mL/min/kg
CL PL QH (in vivo; [5]): 2.4% and 1.8% and 2.2%
Cmax/Dose (in vivo; [5]): 5300 nM/(nmol kg-1) and 7400 nM/(nmol kg-1) and 7420 nM/(nmol kg-1)
MRT (in vivo; [5]): 4.5 h and 4.3 h and 3.8 h
Plasma concentration 0.1 h (in vivo; [5]): 2440 nM and 3410 nM and 3420 nM
Plasma concentration 0.5 h (in vivo; [5]): 1650 nM and 1900 nM and 1850 nM
Plasma concentration 1 h (in vivo; [5]): 655 nM and 1140 nM and 855 nM
Plasma concentration 2 h (in vivo; [5]): 328 nM and 402 nM and 307 nM
Plasma concentration 4 h (in vivo; [5]): 110 nM and 144 nM and 117 nM
Vss (in vivo; [5]): 0.6 L/kg and 0.4 L/kg and 0.5 L/kg
t1/2 (in vivo; [5]): 6.9 h and 6.7 h and 6.6 h
AUC0-inf/Dose (in vivo; mice, Mean): 8900 h nM/(nmol kg-1)
AUC0-t/Dose (in vivo; mice, Mean): 8580 h nM/(nmol kg-1)
CL (in vivo; mice, Mean): 1.9 mL/min/kg
CL PL QH (in vivo; mice, Mean): 2.1%
Cmax/Dose (in vivo; mice, Mean): 6710 nM/(nmol kg-1)
MRT (in vivo; mice, Mean): 4.2 h
Plasma concentration 0.1 h (in vivo; mice, Mean): 3090 nM
Plasma concentration 0.5 h (in vivo; mice, Mean): 1800 nM
Plasma concentration 1 h (in vivo; mice, Mean): 883 nM
Plasma concentration 2 h (in vivo; mice, Mean): 346 nM
Plasma concentration 4 h (in vivo; mice, Mean): 124 nM
Vss (in vivo; mice, Mean): 0.5 L/kg
t1/2 (in vivo; mice, Mean): 6.7 h
Plasma concentration 6 h (in vivo; mice, Mean): 95.5 nM
Plasma concentration 24 h (in vivo; mice, Mean): 15.4 nM
VSS (in vivo; mice, 1 mg kg-1 iv bolus): 0.48 L/kg
Cl (in vivo; plasma clearance, mice, 1 mg kg-1 iv bolus): 1.90 mL/min/kg
T1/2 (in vivo; plasma, mice, 1 mg kg-1 iv bolus): 6.74 h
Supplementary Figure 2 dose-response value, replicating H37Rv cells ([3]; Conc. 0.0488281 µM): 104.399 and 96.7961 and 102.12
Supplementary Figure 2 dose-response value, replicating H37Rv cells ([3]; Conc. 0.0976562 µM): 93.8283 and 89.4675 and 92.0871
Supplementary Figure 2 dose-response value, replicating H37Rv cells ([3]; Conc. 0.195312 µM): 90.4271 and 81.4889 and 87.4903
Supplementary Figure 2 dose-response value, replicating H37Rv cells ([3]; Conc. 0.390625 µM): 51.3931 and 36.6199 and 50.2013
Supplementary Figure 2 dose-response value, replicating H37Rv cells ([3]; Conc. 0.78125 µM): -3.993 and -4.461 and -3.242
Supplementary Figure 2 dose-response value, replicating H37Rv cells ([3]; Conc. 1.5625 µM): -4.627 and -5.471 and -5.181
Supplementary Figure 2 dose-response value, replicating H37Rv cells ([3]; Conc. 3.125 µM): -6.152 and -6.465 and -5.866
Supplementary Figure 2 dose-response value, replicating H37Rv cells ([3]; Conc. 6.25 µM): -7.417 and -8.76 and -6.686
Supplementary Figure 2 dose-response value, replicating H37Rv cells ([3]; Conc. 25 µM): -8.655 and -4.856 and -8.241
Supplementary Figure 2 dose-response value, replicating H37Rv cells ([3]; Conc. 50 µM): -5.541 and -9.178 and -8.98
Supplementary Figure 2 dose-response value, replicating H37Rv cells ([3]; Conc. 100 µM): -7.259 and -9.127 and -7.68
